Literature values, collected in PubChem BioAssay AID1259409 (Chemical Carcinogenesis Research Information System (CCRIS), 2018).

Test system: rodent chemically induced tumor inhibition, incidence and multiplicity
Assay: CCRIS tumor inhibitor studies
Details: Carcinogen: DIETHYLNITROSAMINE, 55-18-5, N-METHYLNITROSOUREA, 684-93-5, 1,2-DIMETHYLHYDRAZINE, 540-73-8, Carcinogen: DIETHYLNITROSAMINE, 55-18-5, N-METHYLNITROSOUREA, 684-93-5, 1,2-DIMETHYLHYDRAZINE, 540-73-8, Dose [Inhibitor]: 0, Route [Inhibitor]: ORAL, Species: RAT, Strain/Sex: F344/MALE, Dose [Carcinogen]: 100 MG/KG DEN ONCE, 20 MG/KG MNU 4 TIMES, 40 MG/KG DMH 4 TIMES, 0.05% BBN IN DRINKING WATER FOR 2 WK, 0.1% DHPN IN D, Dose [Carcinogen]: 100 MG/KG DEN ONCE, 20 MG/KG MNU 4 TIMES, 40 MG/KG DMH 4 TIMES, 0.05% BBN IN DRINKING WATER FOR 2 WK, 0.1% DHPN IN D, Promoter: NONE USED

COc1cc(C=O)ccc1O
tumour outcome (control, treated, inhibition, significance) (N-BUTYL-N-(4-HYDROXYB, N-BUTYL-N-(4-HYDROXYB, 1% IN DIET FOR 4 WK BEGINNING 1 DAY PRIOR TO CARCINOGEN TREATMENT (STUDY DURATION: 36 WK), Target Tissue: Type of Lesion: KIDNEY: ADENOMA): 4/14 (29%), 4/15 (27%), 7%, not significant
tumour outcome (control, treated, inhibition, significance) (N-BUTYL-N-(4-HYDROXYB, N-BUTYL-N-(4-HYDROXYB, 1% IN DIET FOR 4 WK BEGINNING 1 DAY PRIOR TO CARCINOGEN TREATMENT (STUDY DURATION: 36 WK), Target Tissue: Type of Lesion: KIDNEY: NEPHROBLASTOMA): 7/14 (50%), 8/15 (53%), -6%, not significant
tumour outcome (control, treated, inhibition, significance) (N-BUTYL-N-(4-HYDROXYB, N-BUTYL-N-(4-HYDROXYB, 1% IN DIET FOR 4 WK BEGINNING 1 DAY PRIOR TO CARCINOGEN TREATMENT (STUDY DURATION: 36 WK), Target Tissue: Type of Lesion: LARGE INTESTINE: ADENOMA): 7/14 (50%), 6/15 (40%), 20%, not significant
tumour outcome (control, treated, inhibition, significance) (N-BUTYL-N-(4-HYDROXYB, N-BUTYL-N-(4-HYDROXYB, 1% IN DIET FOR 4 WK BEGINNING 1 DAY PRIOR TO CARCINOGEN TREATMENT (STUDY DURATION: 36 WK), Target Tissue: Type of Lesion: LARGE INTESTINE: CARCINOMA): 3/14 (21%), 11/15 (73%), -248%, p<0.01
tumour outcome (control, treated, inhibition, significance) (N-BUTYL-N-(4-HYDROXYB, N-BUTYL-N-(4-HYDROXYB, 1% IN DIET FOR 4 WK BEGINNING 1 DAY PRIOR TO CARCINOGEN TREATMENT (STUDY DURATION: 36 WK), Target Tissue: Type of Lesion: LUNG: ADENOMA): 6/14 (43%), 2/15 (13%), 70%, not significant
tumour outcome (control, treated, inhibition, significance) (N-BUTYL-N-(4-HYDROXYB, N-BUTYL-N-(4-HYDROXYB, 1% IN DIET FOR 4 WK BEGINNING 1 DAY PRIOR TO CARCINOGEN TREATMENT (STUDY DURATION: 36 WK), Target Tissue: Type of Lesion: SMALL INTESTINE: ADENOMA): 6/14 (43%), 3/15 (20%), 53%, not significant
tumour outcome (control, treated, inhibition, significance) (N-BUTYL-N-(4-HYDROXYB, N-BUTYL-N-(4-HYDROXYB, 1% IN DIET FOR 4 WK BEGINNING 1 DAY PRIOR TO CARCINOGEN TREATMENT (STUDY DURATION: 36 WK), Target Tissue: Type of Lesion: SMALL INTESTINE: CARCINOMA): 5/14 (36%), 2/15 (13%), 64%, not significant
tumour outcome (control, treated, inhibition, significance) (N-BUTYL-N-(4-HYDROXYB, N-BUTYL-N-(4-HYDROXYB, 1% IN DIET FOR 32 WK BEGINNING POST CARCINOGEN TREATMENT (STUDY DURATION: 36 WK), Target Tissue: Type of Lesion: KIDNEY: ADENOMA): 4/14 (29%), 9/15 (60%), -107%, not significant
tumour outcome (control, treated, inhibition, significance) (N-BUTYL-N-(4-HYDROXYB, N-BUTYL-N-(4-HYDROXYB, 1% IN DIET FOR 32 WK BEGINNING POST CARCINOGEN TREATMENT (STUDY DURATION: 36 WK), Target Tissue: Type of Lesion: KIDNEY: NEPHROBLASTOMA): 7/14 (50%), 11/15 (73%), -46%, not significant
tumour outcome (control, treated, inhibition, significance) (N-BUTYL-N-(4-HYDROXYB, N-BUTYL-N-(4-HYDROXYB, 1% IN DIET FOR 32 WK BEGINNING POST CARCINOGEN TREATMENT (STUDY DURATION: 36 WK), Target Tissue: Type of Lesion: LARGE INTESTINE: CARCINOMA): 3/14 (21%), 5/15 (33%), -57%, not significant
tumour outcome (control, treated, inhibition, significance) (N-BUTYL-N-(4-HYDROXYB, N-BUTYL-N-(4-HYDROXYB, 1% IN DIET FOR 32 WK BEGINNING POST CARCINOGEN TREATMENT (STUDY DURATION: 36 WK), Target Tissue: Type of Lesion: SMALL INTESTINE: ADENOMA): 6/14 (43%), 4/15 (27%), 37%, not significant
tumour outcome (control, treated, inhibition, significance) (N-BUTYL-N-(4-HYDROXYB, N-BUTYL-N-(4-HYDROXYB, 1% IN DIET FOR 32 WK BEGINNING POST CARCINOGEN TREATMENT (STUDY DURATION: 36 WK), Target Tissue: Type of Lesion: SMALL INTESTINE: CARCINOMA): 5/14 (36%), 1/15 (7%), 81%, not significant
tumour outcome (control, treated, inhibition, significance) (N-BUTYL-N-(4-HYDROXYBU, N-BUTYL-N-(4-HYDROXYBU, 1% IN DIET FOR 32 WK BEGINNING POST CARCINOGEN TREATMENT (STUDY DURATION: 36 WK), Target Tissue: Type of Lesion: LARGE INTESTINE: ADENOMA): 7/14 (50%), 8/15 (53%), -6%, not significant
tumour outcome (control, treated, inhibition, significance) (N-BUTYL-N-(4-HYDROXYBU, N-BUTYL-N-(4-HYDROXYBU, 1% IN DIET FOR 32 WK BEGINNING POST CARCINOGEN TREATMENT (STUDY DURATION: 36 WK), Target Tissue: Type of Lesion: LUNG: ADENOMA): 6/14 (43%), 3/15 (20%), 53%, p<0.05
